This note sets out measurements from patent US20250152585A1, “PHARMACEUTICAL COMPOUND” (Duke Street Bio Limited, priority 2022, published 2025).

In test [1] the target is T1, N-terminally FLAG-tagged PARP2 (amino acids 1-583) (Homo sapiens, UniProt Q9UGN5).
T1 construct: N-terminally FLAG-tagged PARP2 (amino acids 1-583)
The test can be described thus: PARP2 probe displacement HTRF assay. The test is classed as binding. To be noted: binned Kd. The protocol:
Data analysis was performed identical as for PARP1.
On the technique in general: TR-FRET usually uses a lanthanide donor and a delayed reading to cut background.

In test [2] the target is T2, PARP1 (Homo sapiens, UniProt P09874).
T2 construct: host or cells: HEK293
The test can be described thus: NanoBRET cellular target occupancy assay, PARP1. The format is cell-based. To be noted: for Kd: HEK293 cells transiently transfected with PARP1-NanoLuc fusion, tracer 11 nM, 2 hours at 37° C., Kd by Cheng-Prussoff; for Selectivity: NanoBRET, PARP1 over PARP2, Kd (PARP2)/Kd (PARP1). (Bioluminescence resonance energy transfer reports proximity on the nanometre scale.)

Test [3] deals with T3, PARP2 (Homo sapiens, UniProt Q9UGN5).
T3 construct: host or cells: HEK293
The test can be described thus: NanoBRET cellular target occupancy assay, PARP2. The format is cell-based. As to conditions: HEK293 cells transiently transfected with PARP2-NanoLuc fusion; tracer 2 nM; 2 hours at 37° C.; Kd by Cheng-Prussoff. From the text:
NanoBRET Cellular Target Occupancy Assay

Test [4] concerns the target T4, full length N-terminally FLAG-tagged PARP1 (Homo sapiens, UniProt P09874). Briefly: PARP1 probe displacement HTRF assay. As to conditions: for Selectivity: PARP1 over PARP2, ratio Kd (PARP2)/Kd (PARP1); for Kd: binned Kd.
Test [5] deals with T4, full length N-terminally FLAG-tagged PARP1. The test can be described thus: PARP1 biochemical DELFIA assay (auto-PARylation). Details: recombinant full length human N-terminally FLAG-tagged PARP1.
[6] abbreviates: read-out: PARP1 HTRF, PARP1 probe displacement HTRF.
Setting [7] is: binned IC50, PARP1 biochemical DELFIA assay.
Where [8] appears, read: binned IC50, biochemical auto-PARylation assay.
The mark [9] stands for this setting: PARP1 HTRF, probe displacement HTRF.

Where two headings read alike, the source gives them in different places.

For orientation: IC50 means the point on the concentration scale where inhibition reaches its midpoint.

T3 sequence (Q9UGN5 whole entry): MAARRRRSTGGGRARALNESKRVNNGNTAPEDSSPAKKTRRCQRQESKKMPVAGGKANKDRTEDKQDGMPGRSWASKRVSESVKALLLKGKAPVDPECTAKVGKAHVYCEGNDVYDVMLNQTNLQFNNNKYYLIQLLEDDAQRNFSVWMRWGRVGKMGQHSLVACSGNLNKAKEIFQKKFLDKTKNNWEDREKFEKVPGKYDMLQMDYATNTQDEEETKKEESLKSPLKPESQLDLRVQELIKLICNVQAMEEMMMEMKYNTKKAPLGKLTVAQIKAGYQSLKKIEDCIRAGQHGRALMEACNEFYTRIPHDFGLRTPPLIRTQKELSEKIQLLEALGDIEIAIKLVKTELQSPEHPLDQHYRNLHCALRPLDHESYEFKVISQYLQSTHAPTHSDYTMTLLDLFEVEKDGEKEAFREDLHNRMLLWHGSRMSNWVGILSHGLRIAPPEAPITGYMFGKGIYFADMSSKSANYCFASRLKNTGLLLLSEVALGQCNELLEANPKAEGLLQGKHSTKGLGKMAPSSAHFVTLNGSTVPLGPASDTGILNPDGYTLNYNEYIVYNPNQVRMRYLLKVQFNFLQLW
T1 sequence (Q9UGN5 whole entry, the tested form may be a part): as the sequence (Q9UGN5 whole entry) above
T4 sequence (P09874 whole entry): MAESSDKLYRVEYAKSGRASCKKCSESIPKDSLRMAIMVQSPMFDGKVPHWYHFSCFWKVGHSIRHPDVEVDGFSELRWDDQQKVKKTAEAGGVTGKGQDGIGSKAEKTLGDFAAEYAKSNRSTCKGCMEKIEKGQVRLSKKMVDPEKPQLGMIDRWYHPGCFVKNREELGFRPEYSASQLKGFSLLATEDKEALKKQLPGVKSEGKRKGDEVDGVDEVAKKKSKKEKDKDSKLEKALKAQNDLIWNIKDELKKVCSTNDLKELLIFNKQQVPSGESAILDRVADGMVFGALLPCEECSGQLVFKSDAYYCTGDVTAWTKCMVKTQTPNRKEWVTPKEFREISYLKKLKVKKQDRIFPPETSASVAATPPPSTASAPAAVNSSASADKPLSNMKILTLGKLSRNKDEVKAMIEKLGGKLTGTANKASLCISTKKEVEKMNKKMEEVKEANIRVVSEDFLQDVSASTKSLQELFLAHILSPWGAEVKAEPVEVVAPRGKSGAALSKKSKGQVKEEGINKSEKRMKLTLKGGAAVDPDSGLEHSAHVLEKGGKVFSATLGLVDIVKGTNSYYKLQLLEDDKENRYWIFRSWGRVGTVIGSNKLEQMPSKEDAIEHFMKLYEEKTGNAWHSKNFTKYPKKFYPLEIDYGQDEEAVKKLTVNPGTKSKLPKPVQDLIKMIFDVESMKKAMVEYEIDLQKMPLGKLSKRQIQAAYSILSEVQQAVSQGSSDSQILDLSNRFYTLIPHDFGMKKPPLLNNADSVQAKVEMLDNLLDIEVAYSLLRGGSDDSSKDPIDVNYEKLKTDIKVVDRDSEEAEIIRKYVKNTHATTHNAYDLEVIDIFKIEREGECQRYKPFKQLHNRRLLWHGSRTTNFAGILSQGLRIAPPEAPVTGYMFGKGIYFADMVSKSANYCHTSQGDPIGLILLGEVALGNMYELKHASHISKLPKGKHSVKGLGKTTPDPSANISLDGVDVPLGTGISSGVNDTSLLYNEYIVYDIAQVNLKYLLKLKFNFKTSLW
T2 sequence (P09874 whole entry): as above

As for `CCc1ccc(C2CCN(C3CCN(c4ccc(C(=O)NC)nc4Cl)CC3)C2)[nH]c1=O` (racemic) [Compound 144rac], the Kd in test [1] (PARP2 probe displacement HTRF) was 1000 to 10000 nM; in test [2] it was < 10 nM; in test [3] it was > 10000 nM; in test [4] (setting [6]), < 10 nM. Also, the Selectivity entry in test [2] and in test [4] (probe displacement HTRF) was “+++ (+++ indicate a value of at least 100)” in each case. The IC50 in test [5] (setting [7]) was < 10 nM.

As to `CNC(=O)c1ccc(N2CCC(N3CCC(c4nc5[nH]cc(C(F)(F)F)c5c(=O)[nH]4)C3)CC2)cn1` (racemic) [Compound 150rac], the Kd was < 10 nM in test [1] (PARP2 probe displacement HTRF), 10 to 100 nM in test [2], 100 to 1000 nM in test [3] and < 10 nM in test [4] (setting [6]). Besides, the Selectivity result is “+ (+ indicates a value of 10 to less than 50)” in test [2] and “− (− indicates a value of less than 10)” in test [4] (probe displacement HTRF). For the same molecule, the IC50 in test [5] (setting [7]) is < 10 nM.

Turning to `CNC(=O)c1ccc(N2CCC(N3CCC(c4nc5ccccc5c(=O)[nH]4)C3)CC2)c(F)n1` (racemic) [Compound 157rac], the Kd in test [1] (PARP2 probe displacement HTRF) was 1000 to 10000 nM; in test [2] it was < 10 nM; in test [3], > 10000 nM; in test [4] (setting [6]), < 10 nM. In addition, the Selectivity entry in test [2] and in test [4] (probe displacement HTRF) was “+++ (+++ indicate a value of at least 100)” in each case. The IC50 in test [5] (setting [7]) is < 10 nM.

Take `CNC(=O)c1ccc(N2CCC(N3CCC(c4cc5c(c(=O)[nH]4)CCCC5)C3)CC2)c(F)n1` (single isomer, unassigned) [Compound 337b, 6-fluoro-N-methyl-5-(4-(3-(1-oxo-1,2,5,6,7,8-hexahydroisoquinolin-3-yl)pyrrolidin-1-yl)piperidin-1-yl)picolinamide]: the Kd is 100 to 1000 nM in test [3] and < 10 nM in test [4] (read-out: PARP1 HTRF, probe displacement HTRF). Further, the Selectivity result in test [4] (probe displacement HTRF) was “+++ (+++ indicate a value of at least 100)”. Moreover, the IC50 in test [5] (setting [8]) is < 10 nM.

With `CNC(=O)c1ccc(N2CCC(N3CCC(c4cc5c(F)cncc5c(=O)[nH]4)C3)CC2)c(F)n1` (single isomer, unassigned) [Compound 343a, 6-fluoro-5-(4-(3-(5-fluoro-1-oxo-1,2-dihydro-2,7-naphthyridin-3-yl)pyrrolidin-1-yl)piperidin-1-yl)-N-methylpicolinamide], the results for the Kd in test [1] (probe displacement HTRF) and in test [3] were 100 to 1000 nM and 1000 to 10000 nM, respectively.

For the molecule `CNC(=O)c1ccc(N2CCC(N3CC4(c5nc6c(c(=O)[nH]5)CCCC6)CC3C4)CC2)cn1` [Compound 361, N-methyl-5-(4-(4-(4-oxo-3,4,5,6,7,8-hexahydroquinazolin-2-yl)-2-azabicyclo[2.1.1]hexan-2-yl)piperidin-1-yl)picolinamide], the Kd in test [1] (probe displacement HTRF) is 100 to 1000 nM; in test [4] (setting [9]), < 10 nM. In test [4] (probe displacement HTRF), the Selectivity entry was “+++ (+++ indicate a value of at least 100)”. For the same molecule, the IC50 in test [5] (setting [8]) was < 10 nM.

Take `CNC(=O)c1ccc(N2CCC(N3CC4(c5nc6ncc(F)cc6c(=O)[nH]5)CC3C4)CC2)cn1` [Compound 368]: the Kd in test [1] (probe displacement HTRF) is > 10000 nM; in test [4] (setting [9]), < 10 nM. The Selectivity entry in test [4] (probe displacement HTRF) was “+++ (+++ indicate a value of at least 100)”. In addition, in test [5] (setting [8]), the IC50 is < 10 nM.

On to `CNC(=O)c1ccc(N2CCC(N3CC4(c5nc6ncc(F)cc6c(=O)[nH]5)CC3C4)CC2)c(F)n1` [Compound 369], for which the Kd was 1000 to 10000 nM in test [1] (probe displacement HTRF) and < 10 nM in test [4] (setting [9]). Also, the Selectivity result in test [4] (probe displacement HTRF) is reported as “+++ (+++ indicate a value of at least 100)”. The IC50 in test [5] (setting [8]) is < 10 nM.

For `CNC(=O)c1ccc(N2CCC(N3CC4(c5nc6c(c(=O)[nH]5)COCC6)CC3C4)CC2)cn1` [Compound 373], the Kd is 1000 to 10000 nM in test [1] (probe displacement HTRF) and < 10 nM in test [4] (setting [9]). Further, the Selectivity result in test [4] (probe displacement HTRF) is reported as “+++ (+++ indicate a value of at least 100)”. In test [5] (setting [8]), the IC50 is < 10 nM.

In the case of `CNC(=O)c1ccc(N2CCC(N3CC4(c5nc6c(c(=O)[nH]5)CCCN6C)CC3C4)CC2)c(F)n1` [Compound 375, 6-fluoro-N-methyl-5-(4-(4-(8-methyl-4-oxo-3,4,5,6,7,8-hexahydropyrido[2,3-d]pyrimidin-2-yl)-2-azabicyclo[2.1.1]hexan-2-yl)piperidin-1-yl)picolinamide], the Kd in test [1] (probe displacement HTRF) was 100 to 1000 nM; in test [4] (setting [9]), < 10 nM. Also, the Selectivity entry in test [4] (probe displacement HTRF) was “+ (+ indicates a value of 10 to less than 50)”. For the same molecule, in test [5] (setting [8]), the IC50 was < 10 nM.

For `O=C(NC1CC1)c1ccc(N2CCC(N3CC4(c5nc6cccc(F)c6c(=O)[nH]5)CC3C4)CC2)c(F)n1` [Compound 376], the Kd in test [1] (probe displacement HTRF) was 100 to 1000 nM; in test [4] (setting [9]), < 10 nM. Besides, in test [4] (probe displacement HTRF), the Selectivity entry is listed as “+++ (+++ indicate a value of at least 100)”. Further, in test [5] (setting [8]), the IC50 was < 10 nM.

Turning to `CNC(=O)c1ncc(N2CCC(N3CC4(c5nc6ccc(F)cc6c(=O)[nH]5)CC3C4)CC2)cc1F` [Compound 379], the Kd in test [1] (probe displacement HTRF) was 100 to 1000 nM; in test [4] (setting [9]), < 10 nM. The Selectivity entry in test [4] (probe displacement HTRF) is “+++ (+++ indicate a value of at least 100)”. In addition, the half-inhibitory concentration (IC50) in test [5] (setting [8]) is < 10 nM.

As for `N#Cc1ccc(N2CCC(N3CC4(c5nc6ccc(F)cc6c(=O)[nH]5)CC3C4)CC2)c(F)c1` [Compound 380], the values for the Kd in test [1] (probe displacement HTRF) and in test [4] (setting [9]) were > 10000 nM and < 10 nM, respectively. Besides, the Selectivity result in test [4] (probe displacement HTRF) is on record as “+++ (+++ indicate a value of at least 100)”. Besides, the IC50 in test [5] (setting [8]) is < 10 nM.

Consider `N#Cc1ccc(N2CCC(N3CC4(c5nc6ccc(F)cc6c(=O)[nH]5)CC3C4)CC2)c(Cl)c1` [Compound 381], for which the Kd in test [1] (probe displacement HTRF) was 1000 to 10000 nM; in test [4] (setting [9]), < 10 nM. Further, the Selectivity result in test [4] (probe displacement HTRF) is recorded as “+++ (+++ indicate a value of at least 100)”. Also, the half-inhibitory concentration (IC50) in test [5] (setting [8]) is < 10 nM.

Consider `CCN1CCCc2c1nc(C13CC(C1)N(C1CCN(c4ccc(C(=O)NC)nc4F)CC1)C3)[nH]c2=O` [Compound 384], for which the Kd is 100 to 1000 nM in test [1] (probe displacement HTRF) and < 10 nM in test [4] (setting [9]). In test [4] (probe displacement HTRF), the Selectivity entry is given as “+ (+ indicates a value of 10 to less than 50)”. In addition, the IC50 in test [5] (setting [8]) is < 10 nM.

For the molecule `CNC(=O)c1ccc(N2CCC(N3CC4(c5nc6ccc(F)cc6c(=O)[nH]5)CC3C4)CC2)c(C#N)n1` [Compound 387], the Kd in test [1] (probe displacement HTRF) was 100 to 1000 nM; in test [4] (setting [9]), < 10 nM. Also, the Selectivity entry in test [4] (probe displacement HTRF) was “+++ (+++ indicate a value of at least 100)”. Also, in test [5] (setting [8]), the IC50 was < 10 nM.

Turning to `N#Cc1nc(C(=O)NC2CC2)ccc1N1CCC(N2CC3(c4nc5ccc(F)cc5c(=O)[nH]4)CC2C3)CC1` [Compound 388], the results for the Kd in test [1] (probe displacement HTRF) and in test [4] (setting [9]) were 100 to 1000 nM and < 10 nM, respectively. Also, in test [4] (probe displacement HTRF), the Selectivity result is reported as “+++ (+++ indicate a value of at least 100)”. The IC50 in test [5] (setting [8]) is < 10 nM.

`CNC(=O)c1ccc(N2CCC(N3CC4(c5nc6c(c(=O)[nH]5)CCCC6)CC3C4)CC2)c(F)n1` [Compound 389]: the Kd was 100 to 1000 nM in test [1] (probe displacement HTRF) and < 10 nM in test [4] (setting [9]). Also, the Selectivity result in test [4] (probe displacement HTRF) is recorded as “+++ (+++ indicate a value of at least 100)”. Further, the IC50 in test [5] (setting [8]) was < 10 nM.

In the case of `CNC(=O)c1ccc(N2CCC(N3CC4(c5nc6cccc(C(F)(F)F)c6c(=O)[nH]5)CC3C4)CC2)cn1` [Compound 394], the Kd was 10 to 100 nM in test [1] (probe displacement HTRF) and < 10 nM in test [4] (setting [9]). For the same molecule, the Selectivity entry in test [4] (probe displacement HTRF) is on record as “+ (+ indicates a value of 10 to less than 50)”. The IC50 in test [5] (setting [8]) is < 10 nM.

Turning to `O=C(NC1CC1)c1ncc(N2CCC(N3CC4(c5nc6ccc(F)cc6c(=O)[nH]5)CC3C4)CC2)cc1F` [Compound 411], the Kd in test [1] (probe displacement HTRF) is 100 to 1000 nM; in test [4] (setting [9]), < 10 nM. In addition, in test [4] (probe displacement HTRF), the Selectivity result is reported as “+++ (+++ indicate a value of at least 100)”. Further, the IC50 in test [5] (setting [8]) is < 10 nM.
